# Laboratory results published in a melting point compilation (Tetko et al.; mined from patent text by program, amines drawn as free bases though some values may be those of a salt).
row,Compound,melting point
1,CC(C)(C)C1CCC(=O)C(CC(=O)c2ccccc2)C1 (stereo not drawn),127 to 129 °C
2,CCCCNC(=O)c1ccc(-c2ccc3nnn(Cc4ccc5ncccc5c4)c3n2)cc1F,100 to 102 °C
3,Nc1c(F)c(F)cc2c1c(=O)c(C(=O)O)cn2C1COC1,> 300 °C
4,CCCCCC(O)CCn1[nH]c(=O)n(C)c1=O (stereo not drawn),85 to 88 °C
5,CN1CCc2cc(Cl)c(O)cc2[C@H](c2ccccc2)C1,188 to 189 °C
6,O=C1c2ccccc2C(=O)N1CC1CN(Cc2ccccc2)CCN1Cc1ccccc1 (stereo not drawn),124 °C
7,CCOC(=O)c1ccc(N(C(=O)OC(C)(C)C)N(C)C(C)=O)cc1,82 °C
8,COC(=O)CS(=O)(=O)Nc1c(F)cccc1Oc1nc(OC)cc(OC)n1,111 to 114 °C
9,CCCCCCCCCCCCCCOCC(CC#N)(CC#N)COCCCCCCCCCCCCCC,33 to 35 °C
10,COC(=O)c1ccc2c(c1)C(=O)c1c-2n(CCCNS(=O)(=O)c2ccccc2)c(=O)c2cc(OC)c(OC)cc12,249 to 251 °C
11,COc1ccccc1N1CCN(C(=O)c2ccccc2C(c2ccc(O)cc2)c2ccc(O)cc2)CC1,229 to 231 °C
12,Cc1c(-c2ccccc2)[nH]c(=O)n1C1CCN(Cc2cccc(C(F)(F)F)c2)CC1,243 °C
13,CCOc1ccc(S(=O)(=O)N(CC(=O)NN=C2C(=O)Nc3ccccc32)c2ccccc2)cc1,136 °C
14,CC(Cl)(Cl)C(NC(=O)c1cc(Cl)cc(Cl)c1)NC(=NS(=O)(=O)C(F)(F)F)Nc1cccnc1 (stereo not drawn),213 to 215 °C
15,O=C(O)c1cc(F)c(F)cc1Nc1ccnn1-c1ccccn1,242 to 245 °C
16,Nc1ccc2cccc(Nc3cc(-c4ccc(C(F)(F)F)cc4)ncn3)c2n1,211 to 213 °C
17,CCOC(=O)N[C@@H]1CCc2c(ccc(OCc3ccccc3)c2C(=O)OC)[C@H]1O (relative stereo),147 to 148 °C
18,CCCCN(Cc1ccc(-c2ccccc2S(=O)(=O)NC(=O)c2ccccc2Cl)cc1)C(=O)Oc1ccccc1C(F)(F)F,> 150 °C
19,COC1CC2(C)C(CCC3C4CCC(C(=O)COC(C)=O)C4(C)CC(=O)C32)CC1O (stereo not drawn),177 to 180 °C
20,Cc1cc(C)c(C(O)c2cccc(-n3ccnc3)c2)c(C)c1 (stereo not drawn),191 to 193 °C
21,COc1ccc(Cl)c2oc(-c3ccc(S(N)(=O)=O)cc3)c(-c3ccc(F)cc3)c(=O)c12,279 to 281 °C
22,COc1c(C(=O)O)nc(Br)c(Cl)c1N,154 to 156 °C
23,COc1ccc(Cc2ccc(C(=O)O)cc2)cc1,152 to 153 °C
24,Cc1ccc(-c2c(-c3ccc(S(N)(=O)=O)cc3)cnn(-c3ccc(F)cc3)c2=O)cc1F,187 to 188 °C
25,CC(C)(C)NC1=NS(=O)(=O)c2sc(Cl)cc2N1,368 to 372 °C

row,Compound,melting point
1,CC(=O)Nn1c(C)nc2cc(C(F)(F)F)ccc21,214 to 216 °C
2,Cn1cc(C(N)=O)c(=O)c2sccc21,255 to 258 °C
3,Cc1c(N2C[C@H](CF)[C@](C)(N)C2)c(F)cc2c(=O)c(C(=O)O)cn([C@@H]3C[C@@H]3F)c12,135 to 137 °C
4,O=c1c(-c2ccc(Cl)cc2)c[nH]n1-c1ncccn1,190 to 191 °C
5,CCOC(=O)C1C(=O)C=C(OC(C)OCC)CC1c1ccc(C)cc1 (stereo not drawn),59 to 60 °C
6,CCOC(=O)C(=CNc1cnnn1C)C(=O)c1cc(F)c(Cl)nc1Cl,187 to 189 °C
7,CC(=O)c1c(C)[nH]c(CCN)c1C,106 to 108 °C
8,O=C(O)c1ccc2c(c1)ncn2-c1cc(Cl)ccc1O,308 to 310 °C
9,CC(C)(C)Cc1ccc(C(=O)c2ccccc2C(=O)O)cc1,154 °C
10,Cc1nc(N2CCc3nc(C)sc3CC2)c([N+](=O)[O-])c(=O)[nH]1,> 200 °C
11,O=C1C(=Cc2ccc(F)cc2)C2C=CC1CC2 (stereo not drawn),85 to 86 °C
12,C[Si](C)(C)CCCNc1ccc(C(=O)O)cc1,164 to 165 °C
13,CC(C)C(NC(=O)N(C)Cc1nc2ccccc2[nH]1)C(=O)NN(C(=O)OCc1cccnc1)C(Cc1ccccc1)CC(O)CCc1ccccc1 (stereo not drawn),110 to 114 °C
14,"CC(=O)NCCCC(=O)OC1c2ccccc2C(=O)N1c1ccc2ccc(Cl)nc2n1 (single isomer, unassigned; (+))",200 °C
15,N#Cc1nn(-c2c(Cl)cc(Cl)cc2Cl)c(N)c1C#N,267 to 271 °C
16,CC(Oc1cc2sc(NC(=O)CCCN3CCCC3)nc2cc1F)c1c(Cl)ccc(F)c1Cl (stereo not drawn),153 to 157 °C
17,Cc1ncsc1C(O)c1cccc(N)c1 (stereo not drawn),137 to 138 °C
18,O=C(O)c1ccc2c(c1)S(=O)(=O)c1ccc([N+](=O)[O-])cc1C2=O,> 360 °C
19,CCCCCCCCCCCCCCCCCNC(=O)OCC(CO)Oc1ccon1 (stereo not drawn),71 to 72 °C
20,C=Cn1cc(C(=O)O)c(=O)c2cc(F)c(N3CCN(C(=O)OCC)CC3)nc21,246 to 248 °C
21,COc1ccc(C(=O)NCCCCCCCCCCNC(=O)c2ccc(OC)cc2)cc1,168 to 170 °C
22,"CC(OC(=O)c1ccc(C(=O)O)cc1)c1ccc2c(c1)C(C)(C)CCC2(C)C (single isomer, unassigned; (-))",138 °C
23,CCCC1=NN(c2cccc(S(=O)(=O)O)c2)C(=O)C1=CNc1ccccc1CC,259 °C
24,O=C(O)CCCc1ccc(-c2ccc(F)cc2Cl)cc1,81 to 82 °C
25,CSc1nn(C(=O)NS(=O)(=O)c2ccccc2OC(F)(F)F)c(=O)n1N,136 °C

row,Compound,melting point
1,COC(=O)C=Cc1cc(F)ccc1C(=O)O,151 to 153 °C
2,COc1cccc([C@@]23CCC[C@@H]2CN(C)CC3)c1 (relative stereo),40 to 43 °C
3,COc1ccc(OCc2ccccn2)cc1/C=C/c1cc(/C=C/c2ccc3cc[nH]c3c2)n[nH]1,111 to 120 °C
4,COC(=O)[C@H]1CN(c2ccc3c(c2)sc(=O)n3C(C)C)C(=O)O1,161 to 162 °C
5,COc1cc2c(cc1OC)N(C(=O)c1ccc(-c3ccccc3C(F)(F)F)c(C)c1)Cc1ccc(C(=O)N(C)CC(O)CO)n1C2 (stereo not drawn),184 to 186 °C
6,CCNc1nc2ccccc2n2c(C(C)C)nnc12,209 to 211 °C
7,Cc1c(N2CC(F)C(C3(N)CCC3)C2)c(F)c(N)c2c(=O)c(C(=O)O)cn(C3CC3F)c12 (stereo not drawn),177 to 184 °C
8,CCN(CC)C(=O)N(C)C(=O)Nc1ccccc1,88 to 89.5 °C
9,CCCCCCCCCCCCCCCCOc1coc(CO)cc1=O,68 to 69.5 °C
10,COc1c(Br)c(-c2csc(C(C)C)n2)cc2oc(=O)c(Cl)c(C)c12,186 °C
11,O=S(=O)(c1ccc(C(CC2CCOCC2)c2ccc(-c3nnc(CO)s3)[nH]2)cc1)C1CC1 (stereo not drawn),208 to 209 °C
12,OC1Cc2ccccc2Sc2cc(F)c(F)cc21 (stereo not drawn),98 to 100 °C
13,Cc1ccc2c(c1O)NC(S(=O)O)C1CC(C=CC(N)=O)=CN1C2=O (stereo not drawn),252 to 255 °C
14,CCn1cc(C(=O)O)c(=O)cc1-c1cc(OC)c(OC)c(OC)c1,200 to 201 °C
15,COC(=O)c1cc2ccc(S)cc2nc1OC,103 to 105 °C
16,CC(C)(C)SC1CC(=O)N1CC(=O)CCc1ccccc1 (stereo not drawn),65 °C
17,CC(O)CNc1ccnc2cc(Cl)ccc12 (stereo not drawn),168 to 170 °C
18,Cc1c(CC(=O)NCCO[N+](=O)[O-])cc(-c2ccc(S(C)(=O)=O)cc2)n1-c1ccc(F)cc1,135 °C
19,CCc1ccc(S(=O)(=O)NC(C)(C)C)o1,71 to 72 °C
20,CC(C)Cc1cc(OCc2ccccc2)c2c(c1)OC(C)(C)CC2C(=O)O (stereo not drawn),152 to 153 °C
21,CCOC(=O)C1=C(NC(C)=O)C(=O)O[C@@H]1C,119 to 122 °C
22,COc1cc(C(=O)CCN(C)C)cc(OC)c1OC,45 to 47 °C
23,Cc1ccc(S(=O)(=O)N2[C@@H](C(N)=O)CC[C@H]2c2ccccc2)cc1 (racemic),130 °C
24,Cc1ccc(C(O[Si](C)(C)C(C)(C)C)C(=O)NO)cc1 (stereo not drawn),109 to 111 °C
25,CC1(C)SC2CC(=O)N2C1C#N (stereo not drawn),73 to 75 °C

row,Compound,melting point
1,C=CCNC(=O)Nc1ccc([N+](=O)[O-])cc1O,135 to 136 °C
2,CCN1C(=O)SC(Cc2ccc(N)cc2)C1=O (stereo not drawn),103 to 104 °C
3,CCN(Cc1cc(C(C)=O)ccc1NC(C)=O)C1CCCCC1,98 to 100 °C
4,FC1(Cl)Oc2cc3nc(C(Cl)(Cl)Cl)[nH]c3cc2OC1(F)Cl (stereo not drawn),> 230 °C
5,Cc1cc(Cl)ccc1OC(Cn1cncn1)C(=O)C(C)(C)C (stereo not drawn),63 to 65 °C
6,CC1C(=O)NN(c2cc(Cl)cc(Cl)c2)C1=O (stereo not drawn),95 to 100 °C
7,Nc1ncnc2c1c(-c1ccc(Oc3ccccc3)cc1)cn2C1CCNC1 (stereo not drawn),182 to 184 °C
8,COC(=O)C1CN(C(=O)c2cc(OC)c(OC)c(OC)c2)CCN1C(=O)OC(C)(C)C (stereo not drawn),163 to 164 °C
9,C#Cc1cccc(Nc2ncnc3ccc(S(=O)(=O)n4ccc(C=CC(=O)NOC5CCCCO5)c4)cc23)c1 (stereo not drawn),152 to 155 °C
10,COc1ccc(C(NCCCc2ccccc2)c2cccc(Nc3c(N)c(=O)c3=O)c2)cc1 (stereo not drawn),178 to 180 °C
11,CC(C)(C)OC(=O)NCCNC(=O)c1cnc(S)n1Cc1cc(F)cc(F)c1,178 to 179 °C
12,N#Cc1cc(C2=Nc3cc(O)c(-c4ccc(F)cc4)cc3NC(=O)C2)ccn1,164 °C
13,CC(=O)SCC(C(=O)N[C@@H](CC(C)C)C(=O)O)C(F)(F)F (stereo partly drawn),150 to 152 °C
14,OCCCc1oc(Sc2ccccn2)nc1-c1ccc(Cl)cc1,70 to 71 °C
15,Sc1nccn1Cc1cccs1,130 to 131 °C
16,CC(C)(NCCONC(C)(C)C(=O)CCn1ccnc1[N+](=O)[O-])C(=O)CCn1ccnc1[N+](=O)[O-],90 to 92 °C
17,CC(C)(C)C(=O)Nc1c(F)cc(F)cc1C#Cc1ccc(SC2CCOCC2)cc1,148 to 149 °C
18,CCCCN(C)C(=O)c1ccc(S(=O)(=O)CCCn2c(CCC)nc3c(N)nc(C)c(C)c32)cc1,127 to 129 °C
19,CC(C)(C)c1cc(-c2ccc(N)cc2)cc(C(C)(C)C)c1O,113 to 114 °C
20,O=CC1=CCC(F)(C2COC(c3c(F)cccc3F)=N2)C=C1 (stereo not drawn),105 to 106 °C
21,Cc1c(-c2cccnc2)n(CCCCCC(=O)O)c2ccc(Cl)cc12,137 to 141 °C
22,COC(=O)C1CC(=O)Nc2ccccc2C1 (stereo not drawn),114 to 115 °C
23,CNC(=O)N(O)Cc1ccc(OCc2ccccc2)cc1,150 to 153 °C
